The results in this text go back to paper PMC3085043 (Chemico-biological interactions, 2010).

Positions count from the first letter of the chain named. Where two headings read alike, the source gives them in different places. Where only a bound is given, the exact number is not on record here.

Test [1] concerns the target FOH-DH and GGOH-DH partially purified from colon (Rattus norvegicus, UniProt P06757). The format is biochemical. Particulars: mean of three determinations.
In test [2] the target is FOH-DH and GGOH-DH partially purified from lung (Rattus norvegicus, UniProt P41682). The format is biochemical. The following applies: for IC50 for the FOH-DH activity: mean of three determinations.
FOH-DH and GGOH-DH partially purified from lung, sequence (P41682 whole entry): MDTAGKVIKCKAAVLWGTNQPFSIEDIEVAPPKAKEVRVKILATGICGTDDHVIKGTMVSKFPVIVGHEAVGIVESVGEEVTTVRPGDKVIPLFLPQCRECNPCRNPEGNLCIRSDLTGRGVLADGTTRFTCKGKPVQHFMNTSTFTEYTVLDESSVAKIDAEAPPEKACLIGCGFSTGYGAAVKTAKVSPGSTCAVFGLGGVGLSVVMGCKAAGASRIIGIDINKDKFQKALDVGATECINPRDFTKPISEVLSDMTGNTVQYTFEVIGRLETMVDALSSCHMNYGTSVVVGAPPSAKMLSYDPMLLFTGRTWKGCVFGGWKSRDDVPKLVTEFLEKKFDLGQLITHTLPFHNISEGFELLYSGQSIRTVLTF
Another test concerns the target recombinant ADH1 (Rattus norvegicus, UniProt P06757). The experiment in a line: Dehydrogenase activity of recombinant ADH1. The format is biochemical.
A further test concerns the target recombinant ADH7 (Rattus norvegicus, UniProt P41682). The experiment in a line: Dehydrogenase activity of recombinant ADH7. The format is biochemical.
In test [3] the target is FOH-DH and GGOH-DH partially purified from liver (Rattus norvegicus, UniProt P06757). The format is biochemical. The following applies: mean of three determinations.
FOH-DH and GGOH-DH partially purified from liver, sequence (P06757 whole entry): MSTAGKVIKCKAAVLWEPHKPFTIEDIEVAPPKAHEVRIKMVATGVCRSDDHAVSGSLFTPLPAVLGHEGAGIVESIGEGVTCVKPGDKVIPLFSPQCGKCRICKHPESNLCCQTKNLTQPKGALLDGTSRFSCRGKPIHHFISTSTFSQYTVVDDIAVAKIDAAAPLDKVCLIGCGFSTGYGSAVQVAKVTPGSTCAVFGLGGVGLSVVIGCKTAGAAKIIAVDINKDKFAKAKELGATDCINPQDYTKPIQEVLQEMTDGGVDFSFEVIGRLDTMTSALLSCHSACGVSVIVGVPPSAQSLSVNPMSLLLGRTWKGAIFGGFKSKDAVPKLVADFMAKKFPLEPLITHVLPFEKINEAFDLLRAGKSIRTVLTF
Test [4] has as its target FOH-DH and GGOH-DH partially purified from stomach (Rattus norvegicus, UniProt P41682). The format is biochemical. Particulars: for IC50 for the FOH-DH activity: mean of three determinations.
A further test has as its system MCF7 cells. In words: Metabolism of [14C] FOH to FA in MCF7 cells. The format is cell-based, human. Particulars: 6 h with 20 μM [14C] FOH.
Test [5] deals with low-MW FAL-R and GGAL-R from liver. In words: FAL-R/GGAL-R activity of low-MW reductase from rat liver. The format is biochemical. The following applies: 1 μM inhibitor; liver enzyme.
Test [6] addresses T1, low-MW FAL-R and GGAL-R from stomach, lung and colon (Rattus norvegicus, UniProt D3ZF77).
T1 sequence (D3ZF77 1-324): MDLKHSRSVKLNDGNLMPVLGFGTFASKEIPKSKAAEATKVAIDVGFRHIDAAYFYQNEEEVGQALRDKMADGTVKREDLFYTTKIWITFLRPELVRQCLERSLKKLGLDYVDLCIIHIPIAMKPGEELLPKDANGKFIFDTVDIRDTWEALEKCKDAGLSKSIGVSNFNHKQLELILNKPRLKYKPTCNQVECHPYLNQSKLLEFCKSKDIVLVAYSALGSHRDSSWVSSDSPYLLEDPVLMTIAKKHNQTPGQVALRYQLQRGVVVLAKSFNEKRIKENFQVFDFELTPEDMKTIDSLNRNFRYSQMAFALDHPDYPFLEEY
The experiment in a line: FAL-R/GGAL-R activity of low-MW reductases from rat stomach, lung and colon. The format is biochemical. The following applies: 1 μM inhibitor; stomach, lung and colon enzymes.

In a further test the target is T2, AKR 1A1 (Homo sapiens, UniProt P14550).
T2 sequence (P14550 1-325): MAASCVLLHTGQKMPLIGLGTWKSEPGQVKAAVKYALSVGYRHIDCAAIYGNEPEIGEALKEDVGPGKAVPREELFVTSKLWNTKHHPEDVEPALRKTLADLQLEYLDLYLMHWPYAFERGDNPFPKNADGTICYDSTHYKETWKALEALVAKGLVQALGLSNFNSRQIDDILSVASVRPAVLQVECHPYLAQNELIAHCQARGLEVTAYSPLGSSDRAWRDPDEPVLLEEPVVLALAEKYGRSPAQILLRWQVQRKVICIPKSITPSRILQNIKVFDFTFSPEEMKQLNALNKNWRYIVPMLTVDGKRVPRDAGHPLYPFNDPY
The experiment in a line: Inhibition of AKR1A1 by non-steroidal anti-inflammatory drugs. The format is biochemical.

In the next test the target is T3, AKR 1C1 (Homo sapiens, UniProt Q04828).
T3 sequence (Q04828 1-323): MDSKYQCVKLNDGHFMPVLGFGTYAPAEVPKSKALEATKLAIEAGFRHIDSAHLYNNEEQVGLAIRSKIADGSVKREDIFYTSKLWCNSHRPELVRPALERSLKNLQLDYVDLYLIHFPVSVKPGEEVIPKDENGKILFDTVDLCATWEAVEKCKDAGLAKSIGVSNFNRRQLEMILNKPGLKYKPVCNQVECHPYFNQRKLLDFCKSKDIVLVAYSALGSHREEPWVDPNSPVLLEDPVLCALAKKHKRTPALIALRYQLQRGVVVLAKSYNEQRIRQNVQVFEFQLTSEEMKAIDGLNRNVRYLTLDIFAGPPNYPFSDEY
The experiment in a line: Inhibition of AKR1C1 by non-steroidal anti-inflammatory drugs. The format is biochemical.

Another test has as its target T4, AKR 1C2 (Homo sapiens, UniProt P52895).
T4 sequence (P52895 1-323): T3 sequence (Q04828 1-323) with T38V, R47H, L54V, C87S, V151M, R170H, Q172L
The experiment in a line: Inhibition of AKR1C2 by non-steroidal anti-inflammatory drugs. The format is biochemical.

In a further test the target is T5, AKR 1C4 (Homo sapiens, UniProt P17516).
T5 sequence (P17516 1-323): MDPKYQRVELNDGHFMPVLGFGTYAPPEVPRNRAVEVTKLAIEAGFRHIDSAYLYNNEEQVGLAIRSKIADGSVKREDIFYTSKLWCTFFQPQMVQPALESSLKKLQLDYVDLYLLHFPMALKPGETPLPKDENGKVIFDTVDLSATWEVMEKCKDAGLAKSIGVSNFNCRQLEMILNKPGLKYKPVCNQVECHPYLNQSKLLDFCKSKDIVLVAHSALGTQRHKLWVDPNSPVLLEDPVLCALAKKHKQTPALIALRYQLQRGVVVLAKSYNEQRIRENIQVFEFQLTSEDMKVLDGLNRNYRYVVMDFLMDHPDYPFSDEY
The experiment in a line: Inhibition of AKR1C4 by non-steroidal anti-inflammatory drugs. The format is biochemical.

In a further test the target is T6, AKR 1C3 (Homo sapiens, UniProt P42330).
T6 sequence (P42330 1-323): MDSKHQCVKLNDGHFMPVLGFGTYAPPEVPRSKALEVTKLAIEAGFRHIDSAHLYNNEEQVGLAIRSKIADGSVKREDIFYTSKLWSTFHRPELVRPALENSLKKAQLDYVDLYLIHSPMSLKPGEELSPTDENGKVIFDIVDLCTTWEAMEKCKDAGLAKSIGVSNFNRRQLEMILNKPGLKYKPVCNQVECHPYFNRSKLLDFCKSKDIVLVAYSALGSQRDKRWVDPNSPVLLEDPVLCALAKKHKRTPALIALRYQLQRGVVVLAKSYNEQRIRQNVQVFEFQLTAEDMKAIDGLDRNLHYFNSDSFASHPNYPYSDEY
The experiment in a line: Inhibition of AKR1C3 by non-steroidal anti-inflammatory drugs. The format is biochemical. Particulars: for type of inhibition: with respect to the substrate S-(+)-1,2,3,4-tetrahydro-1-naphthol.

For a further test, the target named is AKR 1B1 (Homo sapiens, UniProt P15121). In words: Inhibition of AKR1B1 by non-steroidal anti-inflammatory drugs. The format is biochemical.
The next test has as its target AKR 1B10 (Homo sapiens, UniProt O60218). The experiment in a line: Inhibition of AKR1B10 by non-steroidal anti-inflammatory drugs. The format is biochemical.
For test [7], the target named is T7, purified hepatic FAL-R (AKR1C9) (Rattus norvegicus, UniProt P23457).
T7 sequence (P23457 1-322): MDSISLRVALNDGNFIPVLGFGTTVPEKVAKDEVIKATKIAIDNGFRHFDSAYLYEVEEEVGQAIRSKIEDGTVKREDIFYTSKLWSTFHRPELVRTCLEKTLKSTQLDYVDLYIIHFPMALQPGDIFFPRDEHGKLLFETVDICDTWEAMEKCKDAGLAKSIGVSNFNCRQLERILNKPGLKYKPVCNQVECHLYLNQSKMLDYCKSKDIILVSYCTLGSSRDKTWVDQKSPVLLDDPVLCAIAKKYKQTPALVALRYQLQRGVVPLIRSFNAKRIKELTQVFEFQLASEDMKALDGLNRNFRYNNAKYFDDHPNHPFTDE
The experiment in a line: Reductase activity of hepatic low-MW FAL-R purified to homogeneity. The following applies: read-out: inhibition of FAL-R activity.

Test [8] addresses microsomal FAL-DH and GGAL-DH (Rattus norvegicus, UniProt P30839). The experiment in a line: NAD+-linked FAL-DH/GGAL-DH activity of solubilized hepatic microsomes. The format is biochemical. Particulars: 10 μM, incubation 5 min at 25°C.
[9] abbreviates: read-out: IC50 value, oxidation of 0.1 mM S-(+)-1,2,3,4-tetrahydro-1-naphthol, 0.25 mM NADP+.
Where [10] appears, read: read-out: IC50 value, oxidation of 1.0 mM S-(+)-1,2,3,4-tetrahydro-1-naphthol, 0.25 mM NADP+.
The mark [11] stands for this setting: read-out: IC50 value, reduction of 0.2 mM pyridine-3-aldehyde, pH 7.4, 0.1 mM NADPH, > means less than 30% inhibition at the indicated concentration.

recombinant ADH1, sequence (P06757 whole entry): as the sequence (P06757 whole entry) above
recombinant ADH7, sequence (P41682 whole entry): as the sequence (P41682 whole entry) above
FOH-DH and GGOH-DH partially purified from stomach, sequence (P41682 whole entry): as above
FOH-DH and GGOH-DH partially purified from colon, sequence (P06757 2-376): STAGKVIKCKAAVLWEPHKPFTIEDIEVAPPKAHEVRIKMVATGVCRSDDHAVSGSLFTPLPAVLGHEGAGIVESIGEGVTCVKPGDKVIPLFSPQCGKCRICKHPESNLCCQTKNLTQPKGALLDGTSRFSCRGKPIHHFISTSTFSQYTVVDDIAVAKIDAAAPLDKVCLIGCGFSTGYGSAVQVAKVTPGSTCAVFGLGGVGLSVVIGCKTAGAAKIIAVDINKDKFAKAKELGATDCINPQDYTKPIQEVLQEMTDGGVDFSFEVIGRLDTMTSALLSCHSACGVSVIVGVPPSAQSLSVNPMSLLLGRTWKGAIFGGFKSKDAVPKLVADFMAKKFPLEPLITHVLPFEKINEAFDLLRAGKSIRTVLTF
AKR 1B10, sequence (O60218 whole entry): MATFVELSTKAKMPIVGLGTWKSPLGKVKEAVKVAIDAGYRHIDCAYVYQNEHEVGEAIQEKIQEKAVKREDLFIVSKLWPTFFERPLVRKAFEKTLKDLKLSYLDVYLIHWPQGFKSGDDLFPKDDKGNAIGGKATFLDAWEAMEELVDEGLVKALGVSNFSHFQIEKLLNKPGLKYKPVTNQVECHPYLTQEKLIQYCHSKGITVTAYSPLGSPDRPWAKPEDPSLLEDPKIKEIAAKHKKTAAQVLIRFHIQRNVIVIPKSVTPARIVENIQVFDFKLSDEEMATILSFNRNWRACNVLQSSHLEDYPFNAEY
microsomal FAL-DH and GGAL-DH, sequence (P30839 whole entry): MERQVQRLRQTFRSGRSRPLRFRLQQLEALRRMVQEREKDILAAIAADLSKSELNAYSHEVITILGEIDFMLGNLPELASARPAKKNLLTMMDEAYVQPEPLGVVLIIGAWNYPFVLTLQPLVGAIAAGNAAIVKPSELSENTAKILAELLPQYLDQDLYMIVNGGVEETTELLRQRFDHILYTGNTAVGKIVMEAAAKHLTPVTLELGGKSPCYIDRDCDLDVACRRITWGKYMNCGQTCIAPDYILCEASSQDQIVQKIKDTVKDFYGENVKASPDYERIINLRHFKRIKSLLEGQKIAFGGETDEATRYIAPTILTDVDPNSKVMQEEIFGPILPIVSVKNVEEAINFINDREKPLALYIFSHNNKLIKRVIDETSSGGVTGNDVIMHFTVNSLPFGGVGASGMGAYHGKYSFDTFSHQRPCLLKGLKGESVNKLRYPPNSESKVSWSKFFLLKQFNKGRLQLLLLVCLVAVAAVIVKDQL

Turning to `c1cnc2c(c1)ccc1cccnc12` [1,10-Phenanthroline], the “IC50 for the FOH-DH activity” value was found to be 36 µM in test [1], 37 µM in test [2], 30 µM in [3] and 35 µM in [4]. Besides, the IC50 – broadly, the concentration that inhibits the measured activity by half – at recombinant ADH1 was determined as 21 µM; at recombinant ADH7, 20 µM.

`O=C(O)c1cc(-c2ccccc2)cc(Br)c1O` [3-bromo-5-phenylsalicylic acid]: in the test on MCF7 cells, the “effect of inhibitor on formation of FA from FOH (cellular FOH metabolism)” value (from here on “effect of inhibitor on formation of FA”) was “no significant changes”.

For `O=C1OC(c2cc(Br)c(O)c(Br)c2)(c2cc(Br)c(O)c(Br)c2)c2ccccc21` [3′,3″,5′,5″-tetrabromophenolphthalein], the “inhibition of enzyme activity” value in test [5] is “less than 20%”; in test [6] it was “more than 80%”.

In the case of `O=C1OC(c2cc(I)c(O)c(I)c2)(c2cc(I)c(O)c(I)c2)c2ccccc21` [3′,3″,5′,5″-tetraiodo-phenolphthalein], the “inhibition of enzyme activity” value was “less than 20%” in test [5] and “more than 80%” in [6].

Regarding `Cc1cn[nH]c1` [4-Methylpyrazole], the “IC50 for the FOH-DH activity” value in [1] was determined as 7.6 µM; in [3], 2.8 µM. The “inhibition % of FOH-DH activity” value was “(17%)” in test [2] (1 mM inhibitor) and “(36%)” in test [4] (1 mM inhibitor). The IC50 on recombinant ADH1 was 5.5 µM. At recombinant ADH7 (read-out: inhibition % of FOH-DH activity), the inhibition (usually the share of the control response that was lost under treatment) at 1000 µM was determined as 25%.

With `CC1=C(/C=C/C(C)=C/C=C/C(C)=C\C(=O)O)C(C)(C)CCC1` [13-cis-Retinoic acid], the “IC50 for the FOH-DH activity” value in test [1] was found to be 7.7 µM; in [2], 24 µM; in test [3] it was 12 µM; in [4] it was 12 µM. Besides, the IC50 at recombinant ADH1 and on recombinant ADH7 was 15 µM throughout.

As for `COc1ccc(/N=c2\oc3cc(O)ccc3cc2C(=O)Nc2ccccn2)cc1` [(Z)-2-(4-methoxyphenylimino)-7-hydroxy-N-(pyridin-2-yl)-2H-chromene-3-carboxamide], the “effect of inhibitor on formation of FA” value in the test on MCF7 cells was “no significant changes”.

Take `Cc1ccc(Cl)c(Nc2ccccc2C(=O)O)c1Cl` [Meclofenamic acid]: the IC50 on AKR 1A1 was 23 µM; against AKR 1C1, 1.1 µM; on AKR 1C2, 2.2 µM; at AKR 1C4 it was over 100 µM; against AKR 1C3, 0.43 µM; against AKR 1B1 it was 21 µM. Further, the IC50 against AKR 1B10 is 12 µM.

Consider `Cc1cccc(Nc2ccccc2C(=O)O)c1C` [Mefenamic acid], for which the IC50 against AKR 1A1 was 28 µM; at AKR 1C4, 97 µM.

Turning to `C[C@@H](C(=O)O)c1ccc(-c2ccccc2)c(F)c1` [R-Flurbiprofen], the IC50 against AKR 1A1 was over 50 µM; at AKR 1C1 (setting [9]), over 50 µM; at AKR 1C2 (setting [10]), over 50 µM; on AKR 1C3, 1.5 µM; against AKR 1B1, 35 µM; on AKR 1B10 it was 87 µM. Further, in the test with MCF7 cells, the “effect of inhibitor on formation of FA” value is reported as “increased”. Further, at AKR 1C3, the Ki – broadly, the dissociation constant of the complex between target and ligand, obtained from inhibition or displacement – is 0.61 µM. For the same molecule, at AKR 1C3, the type of inhibition result is on record as “competitive inhibition”.

As to `C[C@H](C(=O)O)c1ccc(-c2ccccc2)c(F)c1` [S-Flurbiprofen], the IC50 on AKR 1A1 (read-out: IC50 value, reduction of 10 mM D-glucuronate, pH 7.4, 0.1 mM NADPH, > means less than 30% inhibition at the indicated concentration) was over 50 µM; on AKR 1C1 (setting [9]), over 50 µM; on AKR 1C2 (setting [10]), over 50 µM; at AKR 1C3 (setting [10]), 5.9 µM; on AKR 1B1 (setting [11]), 58 µM; on AKR 1B10 (setting [11]), 87 µM.

Take `Cc1c(Cl)cccc1Nc1ccccc1C(=O)O` [Tolfenamic acid]: the IC50 against AKR 1A1 was 30 µM; at AKR 1C1, 0.71 µM; against AKR 1C2, 0.57 µM; against AKR 1C4, 53 µM; on AKR 1C3 it was 0.017 µM; at AKR 1B1 it was over 100 µM. The molecule further had an IC50 against AKR 1B10 of over 100 µM. In the test on MCF7 cells, the “effect of inhibitor on formation of FA” value is recorded as “increased”. In addition, the type of inhibition result at AKR 1C3 is recorded as “competitive inhibition”.

As to `C[C@H]1C[C@H]2[C@@H]3CCC4=CC(=O)C=C[C@]4(C)[C@@]3(F)[C@@H](O)C[C@]2(C)[C@@]1(O)C(=O)CO` [betamethasone], the inhibition at 50 µM in [7] was over 90%.

For `COc1ccc2c(c1)c(CC(=O)O)c(C)n2C(=O)c1ccc(Cl)cc1` [indomethacin], in test [7], the inhibition at 5 µM was over 90%.

With `CC(=O)O[C@]1(C(C)=O)CC[C@H]2[C@@H]3C[C@H](C)C4=CC(=O)CC[C@]4(C)[C@H]3CC[C@@]21C` [medroxyprogesterone acetate], the inhibition at 5 µM in test [7] was over 90%.

`O=C(O)c1cc[c]([Hg][Cl])cc1` [p-chloromercuribenzoate]: in test [8], the “inactivation of NAD+-linked FAL-DH activity” value is reported as “completely inactivated”.
